Patent US8273372B2, “Extracellular matrix composition” (Restoration of Appearance & Function Trust, priority 2006, dated 2012)
Read-outs that look alike come from different tables or passages of the source.

What was measured:
[1] = test system: human dermal fibroblast cultures; experiment: Toxicity assay, MTS/PMS assay of cell viability; format: cell-based
Protocol: Culture medium was aspirated from confluent culture and washed with versene. […] Trypsin was neutralised with an equal volume of growth medium, the cell suspension was transferred to a universal tube. The culture flask was washed with PBS and transferred to the universal tube. Centrifugation was performed at 200×g for 7 minutes. Cells were resuspended in 1-2 ml growth medium.
Cells were seeded (10^5/well) into 24-well plates in 0.5 ml DMEM growth medium/well and incubated at 37° C. in a humidified 5% CO2 incubator, until the cells adhered and spread, typically overnight. A single well blank/plate was retained for a reagent control.
Culture medium was aspirated from cultures and replaced with: a weighed sample of scaffold (20 mg/well) in fresh serum-free DMEM; serum-free DMEM with a range of dilutions of glutaraldehyde or EDC as cross-linking agents. Cells were incubated at 37° C. in humidified 5% CO2 for 1 hr.
The medium and scaffold material was removed from cells and replaced with fresh maintenance medium (DMEM with 2% HIFBS) and returned to the incubator for 2 to 22 hours. Direct toxicity measurements were taken at 2, 14 and 20 hours. For exposure to matrices, incubation was for 20 hrs. The same medium was added to an empty control well for a reagent blank.
Aliquots of MTS & PMS stock solutions were thawed and a working MTS/PMS reagent was prepared (2 ml MTS+100 μl PMS). MTS/PMS reagent was added to all wells (50 μl/well) and returned to the incubator for 2-4 hours, until colour developed in the medium over control cultures without toxic challenge.
100 μl aliquots of medium were transferred to a 96 well ELISA plate for spectrophotometric measurement at 495 nm.
Matrices of 1% fibrin/1% alginate, foamed & lyophilised, were cross-linked with EDC or glutaraldehyde and washed 5 times in glycine or PBS before a second lyophilisation, or not, as indicated. […] pieces of matrix were incubated in wells with confluent fibroblast cultures in serum-free medium for 1 hr to detect leachable toxicity, assessed after 20 hr to check for induction of delayed cell death.

[2] = test system: human dermal fibroblasts; experiment: MTS assay, acute cytotoxicity; format: cell-based; details: FIGS. 30 and 31
Protocol: (§1) The MTS assay was used as described hereinbefore with certain modifications.
(§2) Firstly, two modalities were used, (i) acute cytotoxicity and (ii) effect on proliferation over 3 days.
(§3) On day −1, human dermal fibroblasts were seeded for (i) at high density (5×10^5/well) and for (ii) at low density (2.5×10^4/well).
(§4) On day 0, cultures were washed in PBS/g and exposed to the test agent diluted into PBS/g unless otherwise stated, for a test period (1-4 hr). Then the test agent was removed and culture medium replaced. For (i), cells were returned to maintenance medium (2% FBS/DMEM) followed by MTS/PMS reagent for two hours. For (ii), cells were returned to growth medium (10% FBS/DMEC) for three days. After this period, the growth medium was aspirated and replaced with maintenance medium (2% FBS/DMEM) followed by MTS/PMS reagent for two hours.
(§5) MTS colour change at 2 hours was measured as described hereinbefore.
(§6) Test agents were GTA and soaked scaffold supernatants (a), fibrinogen and fragment E Schiff base hydrolysate (b) and (c) and alginate (d).

[3] = test system: neutrophil CD18; experiment: Human neutrophil activation assay (CD18, FACS); format: cell-based; details: 1 hour at 37° C., FIGS. 36 and 37, read-out: ED50 neutrophil CD18 activation
Protocol: Dextran 70 and ACD were warmed to 37° C. in a water bath. 2.5 ml ACD was drawn into a 20 ml syringe. 10-15 ml of blood was drawn from a volunteer into the same syringe and inverted several times to mix. The needle was changed and 6-7 ml of Dextran 70 was drawn. Some air was drawn into the top of the syringe and mixed thoroughly by inverting the syringe several times. The syringe was turned upright, taped to the inside of a 37° C. water bath and left for approximately 1.5 hours to allow for erythrocytes to sediment, leaving a leukocyte-rich plasma upper layer.
The syringe was carefully removed from the water bath keeping upright and the top of the needle was bent through about 120°. A 15 ml polypropylene tube was placed under the tip of the needle and approximately half of the plasma was slowly removed (containing the leukocytes). The remainder of the plasma was removed into a second tube leaving the red blood cells in the syringe to be discarded. Each of the 15 ml tubes was topped up with PBS/g and inverted to mix.
The tubes were centrifuged at 1000 rpm for 10 minutes. The supernatant was removed using a 1 ml plastic pipette and the pellet was loosened. If the supernatant appeared cloudy then a check was performed under the microscope for remaining cells and centrifuged again if necessary. When the supernatant was clear it was discarded. […]

[4] = test system: human dermal fibroblasts; experiment: MTS assay, effect on proliferation over 3 days; format: cell-based; details: FIGS. 30 and 31
Protocol: as §1, §2, §3, §4, §5, §6

[5] = test system: HPMEC; experiment: Cell adhesion assay on cross-linked matrix protein coatings (crystal violet); format: cell-based, human; details: coating cross-linked with glutaraldehyde or EDC dilution range, 1 hr adhesion; FIG. 5
Protocol: HPMEC were isolated from human placentae obtained with consent and cultured according to previously published methods (Leach et al. (1994) Placenta 15(4): 355-64; Dye et al. (2001) Microvasc Res 62(2): 94-113; Dye et al. (2004) Faseb J 18(1): 125-7). Established cultures are phenotypically stable for typically up to 25 passages at a split ratio of 1:3. Cultures are maintained in standard growth medium (M199+5% PDPDS+2% HIFBS). Cultures were maintained in a humidified 5% CO2 and 37° C. atmosphere. For biocompatibility assessment of scaffolds, harvested cells were resuspended in high growth medium (M199+5% HIBFS). For cell adhesion assays harvested cells were resuspended in M199+0.5% BSA. […]
The well was washed with a sufficient number of washes to reduce residual concentration to below cytotoxic limits (5×100 μl per well) with PBS, replaced with 50 μl/well BSA/NaHCO3 (covalent reagent blocking step) and incubated for 1 hr at 37° C. Washing was performed twice with sterile PBS and the plate was stored with 100 μl/well PBS until the cells were ready.
Accutase was thawed and M199/BSA was prepared. […] The supernatant was aspirated and the cells were resuspended in 1-2 ml M199/BSA as appropriate, titurated, and cell density was counted (1:10 in 4% trypan blue/PBS), aiming for around 2×10^6/ml.
The number of cells required for the assay was calculated using 1-2×10^4 cells/well. […]

For CCN=C=NCCCN(C)C.Cl [EDC, 1-(3-Dimethylamino-propyl)-3-ethyl-carbodiimide (EDC) HCl], the “LD50 for cells relative to the lowest cross-linking concentration used” value [1] was 5,000-10,000 times less and the “toxicity (loss of cell viability)” value ([1]; 1 hr exposure, measured at 2, 14 and 20 hours, FIGS. 6-7) was “acute concentration-dependent toxicity”.

For O=CCCCC=O [glutaraldehyde], the “acute LD50 on HDF cytotoxicity” value [2] was 50 to 150 µM, the “LD50 for cells relative to the lowest cross-linking concentration used” value [1] was 5-10 times less and the “toxicity (loss of cell viability)” value [1] was “acute concentration-dependent toxicity”. The EC50 [3] was 150 to 500 µM and the LD50 for proliferation [4] was “around 7 μM”.

In the case of collagen, the “effect of cross-linking on cell adhesion” value [5] is reported as “biphasic effect”.

With fibrinogen the “effect of cross-linking on cell adhesion” value [5] was “continuously increases adhesion”.
